The supplement of paper PMC8960247
Where a name gives a salt, the structure may show the parent alone. ± gives the standard error.

System: 621-102 (TSC2-deficient)
Test: relative viability vs DMSO; higher = less cytotoxic
Conditions: 0.0001 µM; serum: 10% FBS; 72 h
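Note: immortalized renal angiomyolipoma cells stably carrying empty vector or TSC2, dosed in 384-well plates in DMEM, viability normalized to vehicle-treated wells within each plate.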

Compound	relative viability [%]
CCC(C)n1ncn(-c2ccc(N3CCN(c4ccc(OCC5COC(Cn6cncn6)(c6ccc(Cl)cc6Cl)O5)cc4)CC3)cc2)c1=O (configuration not stated) [Itraconazole (Sporanox)]	108 ± 2.3
CCCNC(=O)Nc1ccc(Oc2ncnc3cc(OC)c(OC)cc23)cc1Cl [KRN 633]	84.4 ± 4.7
O=C(c1ccc(/C=C/c2n[nH]c3ccccc23)cc1)N1CCNCC1 [KW 2449]	103 ± 1.6
O=C(c1ccc(F)cc1)C1CCN(CCn2c(=O)[nH]c3ccccc3c2=O)CC1 [Ketanserin (Vulketan Gel)]	89 ± 2.5
O=C(c1ccccc1)c1ccc2n1CCC2C(=O)O (configuration not stated) [Ketorolac]	102 ± 1.8
CCCCCCCCCCCCCCCC(=O)OC[C@H](O)[C@H]1OC(=O)C(O)=C1O [L-Ascorbyl 6-palmitate]	122 ± 5.9
Cc1[nH]c2ccccc2c1CCNCc1ccc(/C=C/C(=O)NO)cc1 [LBH-589 (Panobinostat)]	96.4 ± 2.3
Cc1c(C(=O)Nc2ccc(N3C[C@@H](C)O[C@@H](C)C3)nc2)cccc1-c1ccc(OC(F)(F)F)cc1 [LDE225]	91.8 ± 6.5
CS(=O)(=O)CCNCc1ccc(-c2ccc3ncnc(Nc4ccc(OCc5cccc(F)c5)c(Cl)c4)c3c2)o1 [Lapatinib Ditosylate]	102.2 ± 0.43
Nc1cccc2c1CN(C1CCC(=O)NC1=O)C2=O (configuration not stated) [Lenalidomide]	107 ± 2.9
N#Cc1ccc(C(c2ccc(C#N)cc2)n2cncn2)cc1 [Letrozole]	130 ± 1.9
CC(=O)NC[C@H]1CN(c2ccc(N3CCOCC3)c(F)c2)C(=O)O1 [Linezolid]	99.5 ± 7.5
CN(C)C(=O)C(CCN1CCC(O)(c2ccc(Cl)cc2)CC1)(c1ccccc1)c1ccccc1 [Loperamide HCl]	112.8 ± 0.39
O=c1cc(-c2ccc(O)c(O)c2)oc2cc(O)cc(O)c12 [Luteolin (Luteolol)]	108.1 ± 0.74
Cn1cc(/C=C/C(=O)c2cccc(F)c2)cc1/C=C/C(=O)NO [MC1568]	109.3 ± 0.42
CC(C)C[C@@H](C=O)NC(=O)[C@H](CC(C)C)NC(=O)[C@H](CC(C)C)NC(=O)OCc1ccccc1 [MG-132]	104 ± 2.3
Nc1ccccc1NC(=O)c1ccc(CNc2nccc(-c3cccnc3)n2)cc1 [MGCD0103 (Mocetinostat)]	102.2 ± 1
O=C(CN1C(=O)C2(CCCC2)NC[C@H]1c1cc(F)cc(F)c1)Nc1ccc2c(c1)C[C@@]1(C2)C(=O)Nc2ncccc21 [MK 3207 hydrochloride]	114 ± 1.5
O=C(O)CC[C@H]1CC[C@@](c2cc(F)ccc2F)(S(=O)(=O)c2ccc(Cl)cc2)CC1 [MK-0752]	108 ± 3.6

Compound	relative viability [%]
NC1(c2ccc(-c3nc4ccn5c(=O)[nH]nc5c4cc3-c3ccccc3)cc2)CCC1 [MK-2206]	102.1 ± 0.84
S=C(NCc1ccc2c(c1)OCO2)N1CCN(c2ncnc3c2oc2ccccc23)CC1 [MP-470]	105 ± 1.2
Nc1ccccc1NC(=O)c1ccc(CNC(=O)OCc2cccnc2)cc1 [MS-275]	103 ± 3.7
COC(=O)C1=C(C)NC(C)=C(C(=O)OCCN2CCN(C(c3ccccc3)c3ccccc3)CC2)C1c1cccc([N+](=O)[O-])c1 (configuration not stated) [Manidipine HCl (CV-4093)]	110.7 ± 1
COC(=O)C1=C(C)NC(C)=C(C(=O)OCCN2CCN(C(c3ccccc3)c3ccccc3)CC2)C1c1cccc([N+](=O)[O-])c1 (configuration not stated) [Manidipine]	101 ± 4
CNCCCC12CCC(c3ccccc31)c1ccccc12 [Maprotiline HCl]	124.2 ± 0.15
Cc1nnc(C(C)C)n1[C@H]1C[C@H]2CC[C@@H](C1)N2CC[C@H](NC(=O)C1CCC(F)(F)CC1)c1ccccc1 [Maraviroc (Selzentry)]	94.8 ± 3.3
Cc1ccc(NC(=O)c2ccc(CN3CCN(C)CC3)cc2)cc1Nc1nc(-c2cccnc2)cs1 [Masitinib (AB1010)]	116 ± 1.7
Cc1[nH]c(=O)c(C#N)cc1-c1ccncc1 [Milrinone (Primacor)]	109 ± 3.1
O=C1c2c(O)ccc(O)c2C(=O)c2c(NCCNCCO)ccc(NCCNCCO)c21 [Mitoxantrone]	79.5 ± 1.5
NC(=O)c1ncn([C@@H]2O[C@H](CO)[C@@H](O)[C@H]2O)c1O [Mizoribine]	102 ± 2.1
N=C(N)NC(=N)N1CCOCC1 [Moroxydine]	109 ± 1.8
CC1(C)CNc2cc(NC(=O)c3cccnc3NCc3ccncc3)ccc21 [Motesanib DiPhosphate]	104 ± 1.8
FC(F)(F)c1ccc(/C=C/c2nc(COc3ccc(CCCCn4ccnn4)cc3)co2)cc1 [Mubritinib (TAK 165)]	106 ± 3.2
CC(C)(C)c1[nH]cnc1/C=c1\[nH]c(=O)/c(=C/c2ccccc2)[nH]c1=O [NPI-2358]	88.4 ± 2.1
CC(C)(Cc1ccc2ccccc2c1)NC[C@@H](O)COc1cccc(Cl)c1C#N [NPS-2143]	83.2 ± 5.7
CCNC(=O)c1noc(-c2cc(C(C)C)c(O)cc2O)c1-c1ccc(CN2CCOCC2)cc1 [NVP-AUY922]	35.4 ± 3.1
CCNC(=O)c1cc2c(-c3cc(OCCN4CCCC4)c(Cl)cc3Cl)nc(N)nc2s1 [NVP-BEP800]	97.39 ± 0.18
Fc1cc(-c2cccc3ncc(-c4cnn(C5CCNCC5)c4)nc23)cc(F)c1CN1CCOCC1 [NVP-BSK805 dihydrochloride]	102 ± 3.5

Same assay, conditions: 0.001 µM; serum: 10% FBS; 72 h

Compound	relative viability [%]
CCC(C)n1ncn(-c2ccc(N3CCN(c4ccc(OCC5COC(Cn6cncn6)(c6ccc(Cl)cc6Cl)O5)cc4)CC3)cc2)c1=O (configuration not stated) [Itraconazole (Sporanox)]	115 ± 3.1
CCCNC(=O)Nc1ccc(Oc2ncnc3cc(OC)c(OC)cc23)cc1Cl [KRN 633]	119 ± 2.7
O=C(c1ccc(/C=C/c2n[nH]c3ccccc23)cc1)N1CCNCC1 [KW 2449]	92.5 ± 3.8
O=C(c1ccc(F)cc1)C1CCN(CCn2c(=O)[nH]c3ccccc3c2=O)CC1 [Ketanserin (Vulketan Gel)]	103 ± 2.1
O=C(c1ccccc1)c1ccc2n1CCC2C(=O)O (configuration not stated) [Ketorolac]	102 ± 4.5
CCCCCCCCCCCCCCCC(=O)OC[C@H](O)[C@H]1OC(=O)C(O)=C1O [L-Ascorbyl 6-palmitate]	111 ± 2.5
Cc1[nH]c2ccccc2c1CCNCc1ccc(/C=C/C(=O)NO)cc1 [LBH-589 (Panobinostat)]	86.7 ± 1.3
Cc1c(C(=O)Nc2ccc(N3C[C@@H](C)O[C@@H](C)C3)nc2)cccc1-c1ccc(OC(F)(F)F)cc1 [LDE225]	106 ± 2.3
CS(=O)(=O)CCNCc1ccc(-c2ccc3ncnc(Nc4ccc(OCc5cccc(F)c5)c(Cl)c4)c3c2)o1 [Lapatinib Ditosylate]	100 ± 1.8
Nc1cccc2c1CN(C1CCC(=O)NC1=O)C2=O (configuration not stated) [Lenalidomide]	115 ± 1.9
N#Cc1ccc(C(c2ccc(C#N)cc2)n2cncn2)cc1 [Letrozole]	114 ± 5.8
CC(=O)NC[C@H]1CN(c2ccc(N3CCOCC3)c(F)c2)C(=O)O1 [Linezolid]	108 ± 2.5
CN(C)C(=O)C(CCN1CCC(O)(c2ccc(Cl)cc2)CC1)(c1ccccc1)c1ccccc1 [Loperamide HCl]	107 ± 1.7
O=c1cc(-c2ccc(O)c(O)c2)oc2cc(O)cc(O)c12 [Luteolin (Luteolol)]	104 ± 2.9
Cn1cc(/C=C/C(=O)c2cccc(F)c2)cc1/C=C/C(=O)NO [MC1568]	106.9 ± 0.32
CC(C)C[C@@H](C=O)NC(=O)[C@H](CC(C)C)NC(=O)[C@H](CC(C)C)NC(=O)OCc1ccccc1 [MG-132]	102 ± 4
Nc1ccccc1NC(=O)c1ccc(CNc2nccc(-c3cccnc3)n2)cc1 [MGCD0103 (Mocetinostat)]	100.9 ± 0.78
O=C(CN1C(=O)C2(CCCC2)NC[C@H]1c1cc(F)cc(F)c1)Nc1ccc2c(c1)C[C@@]1(C2)C(=O)Nc2ncccc21 [MK 3207 hydrochloride]	114 ± 1.4
O=C(O)CC[C@H]1CC[C@@](c2cc(F)ccc2F)(S(=O)(=O)c2ccc(Cl)cc2)CC1 [MK-0752]	104 ± 3.3
